Tests used:
[1] = system: morningglory; experiment: Test B pre/postemergence morningglory; assay type: in vivo, Ipomoea hederacea
How it was run: (§1)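 Test chemicals in a non-phytotoxic solvent mixture with surfactant were sprayed preemergence onto planted seeds and postemergence onto plants 2 to 18 cm tall (1- to 4-leaf stage). After twelve to sixteen days in a greenhouse, injury was visually rated against untreated controls from 0 (no effect) to 10 (complete control).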

[2] = system: cocklebur; experiment: Test B pre/postemergence cocklebur; assay type: in vivo, Xanthium strumarium
How it was run: as §1

[3] = system: wheat; experiment: Test B pre/postemergence wheat; assay type: in vivo, Triticum aestivum
How it was run: as §1

[4] = system: crabgrass; experiment: Test B pre/postemergence crabgrass; assay type: in vivo, Digitaria sanguinalis
How it was run: as §1

[5] = system: wild oat; experiment: Test B pre/postemergence wild oat; assay type: in vivo, Avena fatua
How it was run: as §1

[6] = system: surinam grass; experiment: Test B pre/postemergence surinam grass; assay type: in vivo, Brachiaria decumbens
How it was run: as §1

[7] = system: sugar beet; experiment: Test B pre/postemergence sugar beet; assay type: in vivo, Beta vulgaris
How it was run: as §1

[8] = system: bedstraw; experiment: Test B pre/postemergence bedstraw; assay type: in vivo, Galium aparine; details: for Bedstraw plant response rating: scale 0 to 10, 0 is no effect, 10 is complete control
How it was run: as §1

[9] = system: corn; experiment: Test B pre/postemergence corn; assay type: in vivo, Zea mays
How it was run: as §1

[10] = system: purple nutsedge; experiment: Test B pre/postemergence purple nutsedge; assay type: in vivo, Cyperus rotundus
How it was run: as §1

[11] = system: pigweed; experiment: Test B pre/postemergence pigweed; assay type: in vivo, Amaranthus retroflexus
How it was run: as §1

[12] = system: velvetleaf; experiment: Test B pre/postemergence velvetleaf; assay type: in vivo, Abutilon theophrasti
How it was run: as §1

[13] = system: soybean; experiment: Test B pre/postemergence soybean; assay type: in vivo, Glycine max
How it was run: as §1

[14] = system: giant foxtail; experiment: Test B pre/postemergence giant foxtail; assay type: in vivo, Setaria faberii
How it was run: as §1

[15] = system: blackgrass; experiment: Test B pre/postemergence blackgrass; assay type: in vivo, Alopecurus myosuroides
How it was run: as §1

[16] = system: rape; experiment: Test B pre/postemergence rape; assay type: in vivo, Brassica napus
How it was run: as §1

[17] = Postemergence, Rate 62 g/ha, scale of 0 to 10, 0 is no effect, 10 is complete control
[18] = Postemergence, Rate 125 g/ha, scale 0 to 10, 0 is no effect, 10 is complete control
[19] = Postemergence, Rate 500 g/ha, scale 0 to 10, 0 is no effect, 10 is complete control
[20] = Preemergence, Rate 62 g/ha, scale of 0 to 10 where 0 is no effect and 10 is complete control
[21] = Preemergence, Rate 125 g/ha, scale 0 to 10, 0 is no effect, 10 is complete control
[22] = Preemergence, Rate 500 g/ha, scale of 0 to 10 where 0 is no effect and 10 is complete control
[23] = Postemergence, Rate 250 g/ha, scale 0 to 10
[24] = Preemergence, Rate 250 g/ha, scale 0 to 10, 0 is no effect, 10 is complete control

In the case of `CC(C)N(C(=O)n1oc(=O)n(C(C)C(=O)c2ccccc2)c1=O)c1ccc(F)cc1F` (stereo not drawn) [Compound 511], the “Morningglory plant response rating” value [1, 17] is reported as 4, the “Morningglory plant response rating” value [1, 18] is reported as 4 and the “Plant response rating, Morningglory” value [1, 19] is reported as 5. The “Plant response rating, Morningglory” value [1, 20] was 0, the “Morningglory plant response rating” value [1, 21] was 0 and the “Morningglory plant response rating” value [1, 22] was 0. For the same molecule, the “Cocklebur plant response rating” value [2, 17] was 0, the “Cocklebur plant response rating” value [2, 18] was 0 and the “Cocklebur plant response rating” value [2, 23] was 0. The “Plant response rating, Cocklebur” value [2, 19] was 0, the “Plant response rating, Cocklebur” value [2, 20] was 0 and the “Cocklebur plant response rating” value [2, 21] was 0. For the same molecule, the “Cocklebur plant response rating” value [2, 24] was 0, the “Cocklebur plant response rating” value [2, 22] was 0 and the “Wheat plant response rating” value [3, 17] was 0. The “Wheat plant response rating” value [3, 18] was 0, the “Plant response rating, Wheat” value [3, 19] was 0 and the “Plant response rating, Wheat” value [3, 20] was 0. For the same molecule, the “Wheat plant response rating” value [3, 21] was 0, the “Wheat plant response rating” value [3, 22] was 0 and the “Crabgrass plant response rating” value [4, 17] was 3. The “Crabgrass plant response rating” value [4, 18] was 3, the “Crabgrass plant response rating” value [4, 23] was 7 and the “Plant response rating, Crabgrass” value [4, 19] was 9. The “Plant response rating, Crabgrass” value [4, 20] was 5, the “Crabgrass plant response rating” value [4, 21] was 6 and the “Crabgrass plant response rating” value [4, 22] was 10. The “Wild oats plant response rating” value [5, 17] was 0, the “Wild oats plant response rating” value [5, 18] was 0 and the “Plant response rating, Wild oats” value [5, 19] was 0. The “Plant response rating, Wild oats” value [5, 20] was 0, the “Wild oats plant response rating” value [5, 21] was 0 and the “Wild oats plant response rating” value [5, 22] was 2. The “B. signalgrass plant response rating” value [6, 17] was 0, the “B. signalgrass plant response rating” value [6, 18] was 0 and the “B. signalgrass plant response rating” value ([6]; Postemergence, Rate 250 g/ha, scale 0 to 10, 0 no effect, 10 complete control) was 0. The “Plant response rating, B. signalgrass” value [6, 19] was 3, the “Plant response rating, B. signalgrass” value [6, 20] was 0 and the “B. signalgrass plant response rating” value [6, 21] was 0. For the same molecule, the “B. signalgrass plant response rating” value [6, 24] was 0, the “B. signalgrass plant response rating” value ([6]; Preemergence, Rate 500 g/ha, scale 0 to 10, 0 is no effect, 10 is complete control) was 0 and the “Sugarbeets plant response rating” value [7, 17] was 0. For the same molecule, the “Sugarbeets plant response rating” value [7, 18] was 0, the “Plant response rating, Sugarbeets” value [7, 19] was 2 and the “Plant response rating, Sugarbeets” value [7, 20] was 0. For the same molecule, the “Sugarbeets plant response rating” value [7, 21] was 0, the “Sugarbeets plant response rating” value [7, 22] was 0 and the “Bedstraw plant response rating” value ([8]; Postemergence, Rate 125 g/ha) was 8. For the same molecule, the “Plant response rating, Bedstraw” value [8, 20] was 0, the “Bedstraw plant response rating” value ([8]; Preemergence, Rate 125 g/ha) was 0 and the “Bedstraw plant response rating” value ([8]; Preemergence, Rate 250 g/ha) was 0. The “Bedstraw plant response rating” value ([8]; Preemergence, Rate 500 g/ha) was 0, the “Corn plant response rating” value [9, 17] was 0 and the “Corn plant response rating” value [9, 18] was 0. For the same molecule, the “Corn plant response rating” value [9, 23] was 0, the “Plant response rating, Corn” value [9, 19] was 0 and the “Plant response rating, Corn” value [9, 20] was 0. The “Corn plant response rating” value [9, 21] was 0, the “Corn plant response rating” value [9, 22] was 0 and the “Nutsedge plant response rating” value [10, 17] was 0. The “Nutsedge plant response rating” value [10, 18] was 0, the “Plant response rating, Nutsedge” value [10, 19] was 0 and the “Plant response rating, Nutsedge” value [10, 20] was 0. For the same molecule, the “Nutsedge plant response rating” value [10, 21] was 0, the “Nutsedge plant response rating” value [10, 22] was 0 and the “Redroot pigweed plant response rating” value [11, 17] was 5. For the same molecule, the “Redroot pigweed plant response rating” value [11, 18] was 6, the “Plant response rating, Redroot pigweed” value [11, 19] was 7 and the “Plant response rating, Redroot pigweed” value [11, 20] was 4. The “Redroot pigweed plant response rating” value [11, 21] was 6, the “Redroot pigweed plant response rating” value [11, 22] was 8 and the “Velvetleaf plant response rating” value [12, 17] was 0. For the same molecule, the “Velvetleaf plant response rating” value [12, 18] was 1, the “Plant response rating, Velvetleaf” value [12, 19] was 2 and the “Plant response rating, Velvetleaf” value [12, 20] was 0. For the same molecule, the “Velvetleaf plant response rating” value [12, 21] was 0, the “Velvetleaf plant response rating” value [12, 22] was 0 and the “Soybean plant response rating” value [13, 17] was 1. For the same molecule, the “Soybean plant response rating” value [13, 18] was 4, the “Plant response rating, Soybean” value [13, 19] was 4 and the “Plant response rating, Soybean” value [13, 20] was 0. The “Soybean plant response rating” value [13, 21] was 0, the “Soybean plant response rating” value [13, 22] was 0 and the “Giant foxtail plant response rating” value [14, 17] was 3. For the same molecule, the “Giant foxtail plant response rating” value [14, 18] was 3, the “Plant response rating, Giant foxtail” value [14, 19] was 9 and the “Plant response rating, Giant foxtail” value [14, 20] was 5. The “Giant foxtail plant response rating” value [14, 22] was 10, the “Blackgrass plant response rating” value [15, 17] was 0 and the “Blackgrass plant response rating” value [15, 18] was 0. For the same molecule, the “Blackgrass plant response rating” value [15, 23] was 0, the “Plant response rating, Blackgrass” value [15, 19] was 2 and the “Plant response rating, Blackgrass” value [15, 20] was 0. For the same molecule, the “Blackgrass plant response rating” value [15, 21] was 0, the “Blackgrass plant response rating” value [15, 24] was 0 and the “Blackgrass plant response rating” value [15, 22] was 0. The “Rape plant response rating” value [16, 17] was 0, the “Rape plant response rating” value [16, 18] was 1 and the “Plant response rating, Rape” value [16, 19] was 4. For the same molecule, the “Plant response rating, Rape” value [16, 20] was 0, the “Rape plant response rating” value [16, 21] was 0 and the “Rape plant response rating” value [16, 22] was 0.
